Measured values reported in US8822519B2, “Compound with agitation effect on peroxisome proliferator-activated receptor process for its preparation and use thereof” (Zhejiang Hisun Pharmaceutical Co., Ltd., priority 2008, dated 2014).
One block for each molecule: values may come before it.

Assays:
PPARδ = molecular target: T1, PPARδ (Homo sapiens, UniProt Q03181); experiment: In vitro screening of nuclear receptor agonist: luciferase reporter gene assay in HepG2 cells; format: cell-based; conditions: RXR/PPARδ luciferase reporter gene, 24 h treatment
T1 construct: expressed in transfected cells; host or cells: HepG2 (human hepatocarcinoma, ATCC)
T1 sequence (Q03181 1-441): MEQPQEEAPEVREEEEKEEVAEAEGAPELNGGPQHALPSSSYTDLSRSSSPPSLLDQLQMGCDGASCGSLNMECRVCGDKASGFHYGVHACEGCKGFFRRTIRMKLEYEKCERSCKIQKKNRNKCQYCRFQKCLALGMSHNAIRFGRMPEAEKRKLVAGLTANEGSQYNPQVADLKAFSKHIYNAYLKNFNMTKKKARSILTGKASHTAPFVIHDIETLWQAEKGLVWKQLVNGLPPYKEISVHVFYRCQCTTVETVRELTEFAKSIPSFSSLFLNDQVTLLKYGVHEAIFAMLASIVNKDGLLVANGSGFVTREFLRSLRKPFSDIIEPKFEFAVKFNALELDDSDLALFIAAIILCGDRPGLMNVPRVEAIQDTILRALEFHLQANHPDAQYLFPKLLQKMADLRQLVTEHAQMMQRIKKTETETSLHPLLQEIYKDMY
T1 sequence (P19793 1-462 partner): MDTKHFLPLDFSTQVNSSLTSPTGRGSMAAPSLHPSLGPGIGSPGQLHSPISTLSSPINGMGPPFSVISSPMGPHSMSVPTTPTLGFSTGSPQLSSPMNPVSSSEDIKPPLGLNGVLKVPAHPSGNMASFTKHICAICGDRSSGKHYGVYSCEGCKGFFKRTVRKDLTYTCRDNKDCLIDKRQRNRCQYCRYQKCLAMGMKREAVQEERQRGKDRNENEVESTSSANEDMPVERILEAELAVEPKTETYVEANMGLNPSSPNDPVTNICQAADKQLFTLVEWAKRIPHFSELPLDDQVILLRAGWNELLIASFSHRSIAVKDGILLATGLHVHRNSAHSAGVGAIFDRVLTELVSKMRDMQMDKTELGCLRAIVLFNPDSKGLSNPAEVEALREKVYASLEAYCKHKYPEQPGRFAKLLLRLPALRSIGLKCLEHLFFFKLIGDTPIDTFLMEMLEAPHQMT
From the text: Using a reporter gene protocol, the screening model for screening a nuclear receptor agonist in a living cell is designed on a basis of the principal that an activated nuclear receptor can activate transcription of its downstream gene. A reporter gene plasmid is constructed, in which the DNA binding sequence for the nuclear receptor (NRE) is inserted upstream of the luciferase gene, so that the expression of the luciferase gene is placed under the control of the nuclear receptor. Then, the reporter gene plasmid and the nuclear receptor are simultaneously transferred into a cell, and the nuclear receptor is activated when the nuclear receptor agonist is present in the cell culture medium. Then the activated receptor is able to induce the expression of the luciferase gene, while the amount of the luciferase can be determined through its luminous substrate. In this way, the intensity of activation by the compound on the nuclear receptor could be known by observing the luminescence intensity.
The specific operation is described as follows:
The experiment reagents: the compounds to be tested (20 mM, in DMSO, stored at −80° C.).
The hepatocarcinoma cell HepG2 (from ATCC, American Type Culture Collection) was cultured in DMEM medium supplemented with 10% heat-inactivated fetal bovine serum (FBS, Invitogen, Grand Island, N.Y., USA) in a T-75 culture bottle (Greiner, Germany) in a incubator at 37° C., the relative humidity of 100%, and 5% CO2. When the cell culture in the culture bottle reached 80-90% confluency, it was digested with 0.25% Trypsin (with EDTA) for 3 min and inoculated into a 96-well cell culture plate at an inoculating density of 2000 cells/100 μl/well.
In the next day, when the cells in the 96-well culture plate grew up to 50-80% confluency, cell transfection was performed. The cell co-transfection system comprised the FuGene6 transfection agent (Roche Molecular Biochemicals, Indianapolis, Ind., U.S.A.) and 60 ng DNA (long of hRXR, 10 ng of pCMV βGal, 10 ng of the nuclear receptor expression plasmid RXR/PPARδ, 30 ng of GFP fluorescence reporter gene plasmid, respectively).
The cell culture medium was discarded immediately at 24 hours post-transfection and replaced by 200 μl of a fresh DMEM medium containing the medicament to be tested (with 10% FBS treated by activated carbon).
24 h after treatment with the medicament, the cells were lysed with a lysis solution (Cell Culture Lysis buffer, Promega) and centrifuged, and the supernatant was collected. The supernatant was treated with a fluorescence detection kit (Promega) and counted by a fluorescence meter (Ascent Fluoroskan FL reader, Thermo Labsystems, Finland), and the relative intensity of the luciferase was determined. For assaying the β-galactosidase activity used in the experiment as the inner reference (the inner reference calibrating for the transfection efficiency), 50 μl of the supernatant was transferred into a fresh microplate and treated with the Promega kit and read at a wavelength of 405 nm from a microplate reader (Bio-tech Instruments Inc., Winooski, Vt., USA) (Sauerberg, P.; Olsen, G. S.; Jeppesen, L.; Mogensen, J. P. et al., J. Med. Chem., 2007, 50, 1495-1503).
The median effective concentration (EC50) of a sample is a concentration at which the sample has 50% pharmacological effect. This value is one of the important parameters for evaluating pharmacological effects of a compound. In the present screening process, the EC50 of a sample was calculated according to the activation of the receptor by the sample at six different concentrations.

[1] = tested on: high fat fodder obese C57BL/6J mice; experiment: High fat fodder obese mice: body weight and food intake; format: in vivo
From the text: (§1) 3 week-old male C57BL/6J mice were chosen as experiment animals, 15 of which were randomly selected to feed with a standard fodder, and the remains were allowed to feed with a high fat fodder, with each of the mice being marked by ear-cutting. The body weights and fodder intake of the mice were weighed every week. […] After the administration of the inventive compounds for four weeks, the effects of the medicaments on the levels of blood lipid and blood glucose, body weight, and fodder intake in the animals were observed, while a glucose tolerance test was performed to investigate the effects of the medicaments on the glucose tolerance in the animals.

[2] = tested on: high fat fodder obese C57BL/6J mice; experiment: High fat fodder obese mice: levels of blood lipid and blood glucose; format: in vivo; parameters: HDL / GLU / TC / TG: unit not given here; conditions: mean ± s, n 5
From the text: as §1, with “[…],” for “After the administration of the inventive compounds for four weeks,”

[3] = 2 weeks administration, 10 mg/kg
[4] = 2 weeks administration, 30 mg/kg
[5] = 4 weeks administration, 10 mg/kg
[6] = 4 weeks administration, 30 mg/kg

SMILES: Cc1cc(SC(c2ccccc2)c2nn(-c3ccc(C(F)(F)F)cc3)c(=O)n2C)ccc1OC(C)(C)C(=O)O (centres unmarked) [Compound A-16, 2,2-dimethyl-2-(2-methyl-4-(1-(3-(4-methyl-5-oxo-1-(4-trifluoromethyl-phenyl)-4,5-dihydrogen-1H-1,2,4-triazolyl))-benzylthio)-phenoxy)-acetic acid]
EC50 (PPARδ): 1 nM

SMILES: CCCCn1c(C(Sc2cc(C)c(OCC(=O)O)cc2C)c2ccccc2)nn(-c2ccc(C(F)(F)F)cc2)c1=O (centres unmarked) [Compound A-19, 2-(2,5-dimethyl-4-(1-(3-(4-n-butyl-5-oxo-1-(4-trifluoromethyl-phenyl)-4,5-dihydrogen-1H-1,2,4-triazolyl))-benzylthio)-phenoxy)-acetic acid]
EC50 (PPARδ): < 1 nM

SMILES: Cc1cc(OCc2nn(-c3ccc(C(F)(F)F)cc3)c(=O)n2C)ccc1OCC(=O)O [Compound A-9, 2-(2-methyl-4-(3-(4-methyl-5-oxo-1-(4-trifluoromethyl-phenyl)-4,5-dihydrogen-1H-1,2,4-triazolyl)-methoxy)-phenoxy)-acetic acid]
EC50 (PPARδ): 6610 nM

SMILES: Cc1cc(SCc2nn(-c3ccc(C(F)(F)F)cc3)c(=O)n2C)ccc1OCC(=O)O [Compound A-8, 2-(2-methyl-4-(3-(4-methyl-5-oxo-1-(4-trifluoromethyl-phenyl)-4,5-dihydrogen-1H-1,2,4-triazolyl)-methylthio)-phenoxy)-acetic acid]
EC50 (PPARδ): 3020 nM

SMILES: CCCCCCCCCCC[C@@H](C[C@@H]1OC(=O)[C@H]1CCCCCC)OC(=O)[C@H](CC(C)C)NC=O [Orlistat, reference compound]
Food intake ([1]; column 1, 10 mg/kg): 5.88 g
Food intake ([1]; column 1, 30 mg/kg): 6.04 g
Food intake ([1]; column 2, 10 mg/kg): 5.42 g
Food intake ([1]; column 2, 30 mg/kg): 4.66 g
Food intake ([1]; column 3, 10 mg/kg): 6.7 g
Food intake ([1]; column 3, 30 mg/kg): 5.52 g
Food intake ([1]; column 4, 10 mg/kg): 6.64 g
Food intake ([1]; column 4, 30 mg/kg): 7.78 g
Food intake ([1]; column 5, 10 mg/kg): 6.4 g
Food intake ([1]; column 5, 30 mg/kg): 7.92 g
GLU [2, 3]: 11.11 ± 1.08
HDL [2, 3]: 3.29 ± 0.27
TC [2, 3]: 3.81 ± 2.56
TG [2, 3]: 0.36 ± 0.09
GLU [2, 4]: 8.81 ± 2.16
HDL [2, 4]: 2.72 ± 0.3
TC [2, 4]: 3.89 ± 0.44
TG [2, 4]: 0.45 ± 0.09
GLU [2, 5]: 11.05 ± 1.09
HDL [2, 5]: 2.63 ± 1.27
TC [2, 5]: 4.24 ± 0.33
TG [2, 5]: 0.28 ± 0.03
GLU [2, 6]: 9.84 ± 1.83
HDL [2, 6]: 2.79 ± 0.35
TC [2, 6]: 3.48 ± 0.54
TG [2, 6]: 0.41 ± 0.04

SMILES: Cc1cc(SC(c2ccccc2)c2nn(-c3ccc(C(F)(F)F)cc3)c(=O)n2C)c(C)cc1OCC(=O)O (centres unmarked) [Compound A-10, 2-(2,5-dimethyl-4-(1-(3-(4-methyl-5-oxo-1-(4-trifluoromethyl-phenyl)-4,5-dihydrogen-1H-1,2,4-triazolyl))-benzylthio)-phenoxy)-acetic acid]
EC50 (PPARδ): 100 nM

SMILES: CCc1cc(SC(c2ccccc2)c2nn(-c3ccc(C(F)(F)F)cc3)c(=O)n2C)ccc1OCC(=O)O (centres unmarked) [Compound A-14, 2-(2-ethyl-4-(1-(3-(4-methyl-5-oxo-1-(4-trifluoromethyl-phenyl)-4,5-dihydrogen-1H-1,2,4-triazolyl))-benzylthio)-phenoxy)-acetic acid]
EC50 (PPARδ): < 1 nM

Further lines, results first:

EC50 (PPARδ): 380 nM
SMILES: Cc1cc(OCC(=O)O)ccc1SC(c1ccccc1)c1nn(-c2ccc(C(F)(F)F)cc2)c(=O)n1C (centres unmarked) [Compound A-7, 2-(3-methyl-4-(1-(3-(4-methyl-5-oxo-1-(4-trifluoromethyl-phenyl)-4,5-dihydrogen-1H-1,2,4-triazolyl))-benzylthio)-phenoxy)-acetic acid]

EC50 (PPARδ): 340 nM
SMILES: CCc1cc(OC(c2ccccc2)c2nn(-c3ccc(C(F)(F)F)cc3)c(=O)n2C)ccc1OCC(=O)O (centres unmarked) [Compound A-5, 2-(2-ethyl-4-(1-(3-(4-methyl-5-oxo-1-(4-trifluoromethyl-phenyl)-4,5-dihydrogen-1H-1,2,4-triazolyl))-benzyloxy)-phenoxy)-acetic acid]

EC50 (PPARδ): 10 nM
SMILES: Cc1cc(SC(c2ccccc2)c2nn(-c3ccc(C(F)(F)F)cc3)c(=O)n2C)ccc1OCC(=O)O (centres unmarked) [Compound A-4, 2-(2-methyl-4-(1-(3-(4-methyl-5-oxo-1-(4-trifluoromethyl-phenyl)-4,5-dihydrogen-1H-1,2,4-triazolyl))-benzylthio)-phenoxy)-acetic acid]

EC50 (PPARδ): 20 nM
SMILES: Cc1cc(SC(C)(C)C(=O)O)ccc1OC(c1ccccc1)c1nn(-c2ccc(C(F)(F)F)cc2)c(=O)n1C (centres unmarked) [Compound A-15, 2,2-dimethyl-2-(3-methyl-4-(1-(3-(4-methyl-5-oxo-1-(4-trifluoromethyl-phenyl)-4,5-dihydrogen-1H-1,2,4-triazolyl))-benzyloxy)-phenylthio)-acetic acid]

EC50 (PPARδ): 100 nM
SMILES: Cc1cc(OC(c2ccccc2)c2nn(-c3ccc(C(F)(F)F)cc3)c(=O)n2C)ccc1SCC(=O)O (centres unmarked) [Compound A-2, 2-(2-methyl-4-(1-(3-(4-methyl-5-oxo-1-(4-trifluoromethyl-phenyl)-4,5-dihydrogen-1H-1,2,4-triazolyl))-benzyloxy)-phenylthio)-acetic acid]

EC50 (PPARδ): 2090 nM
SMILES: Cc1cc(OCC(=O)O)ccc1OC(c1ccccc1)c1nn(-c2ccc(C(F)(F)F)cc2)c(=O)n1C (centres unmarked) [Compound A-6, 2-(3-methyl-4-(1-(3-(4-methyl-5-oxo-1-(4-trifluoromethyl-phenyl)-4,5-dihydrogen-1H-1,2,4-triazolyl))-benzyloxy)-phenoxy)-acetic acid]
